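How tested: cells in 96-well plates exposed to compound for 48 hours at five concentrations. At the GI50, growth is halved.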 The source made the active and inactive calls. Cut-off read from the data, not from the text of the source: active = GI50 up to about 1.1 µM and inactive = higher. *1 amine or outer side, *2 acyl side, *3 side chain or, on linkers, in order; H or OH if unused. Where a SMILES comes first, the peptide text is derived from it. Bridges are numbered along the chain shown (N, C = ends). [ ]: non-standard residue; d: D form. ξ: configuration not given here. X10 = CCC(C)C(N[*:1])C(O)CC(=O)O[C@H](C(=O)C(C)C(=O)[*:2])C(C)C; NMeY = CN[C@@H](Cc1ccc(O)cc1)C(=O)O; ξNMeL = CNC(CC(C)C)C(=O)O; ξT = CC(O)C(N)C(=O)O

We go through 7 compounds from ChEMBL document CHEMBL1201862, “PubChem BioAssay data set” (2004).

Some test systems named below: NCI-H522; T47D; UACC-62; NCI/ADR-RES; Hs-578T; MCF7; PC-3; SK-MEL-28; SW-620; HCT-116; SR; ACHN; CCRF-CEM; SNB-75; BT-549; SN12C; HOP-62; A549; Malme-3M; SK-OV-3.
Assay in all cases: NCI-60 cell line screen, 48 h

Consider `CCNC(=S)NNC(=O)CSc1nc2ccc(I)cc2c(=O)n1Cc1ccccc1`, for which the GI50 was 13.1 µM (inactive) in the test on NCI-H522; 5.27 µM (inactive) in the test on T47D; > 27.6 µM (inactive) in the test on UACC-62; 22 µM (inactive) with NCI/ADR-RES; 29.7 µM (inactive) with Hs-578T; 16.9 µM (inactive) in the test on MCF7. The GI50 in the test on PC-3 is 18.5 µM (inactive); in the test with SK-MEL-28, 63.8 µM (inactive); in the test on SW-620 it was 37.8 µM (inactive); in the test on HCT-116, 6.5 µM (inactive); with SR, 7.43 µM (inactive); in the test with ACHN it was 5.74 µM (inactive). Also, the GI50 in the test with CCRF-CEM is 7.98 µM (inactive); with SNB-75, > 85.7 µM (inactive); in the test on BT-549, > 54.1 µM (inactive); in the test on SN12C it was 10.2 µM (inactive); in the test on HOP-62 it was 35.8 µM (inactive); in the test on A549 it was 25.5 µM (inactive). In addition, the GI50 in the test on Malme-3M was 23.9 µM (inactive); in the test with SK-OV-3 it was 35 µM (inactive).

As for `O=CN/C=C/c1cccc(O)c1`, the GI50 with NCI-H522 is 48.3 µM (inactive); in the test on T47D, 63.4 µM (inactive); in the test on UACC-62, 46.1 µM (inactive); with NCI/ADR-RES, 52.2 µM (inactive); in the test with Hs-578T it was > 55.2 µM (inactive); in the test with MCF7, > 34 µM (inactive). Besides, the GI50 was 56.6 µM (inactive) in the test with PC-3; > 84.1 µM (inactive) with SK-MEL-28; 69.7 µM (inactive) with SW-620; 52.7 µM (inactive) with HCT-116; > 43.7 µM (inactive) with SR; 50 µM (inactive) with ACHN. Further, the GI50 in the test with CCRF-CEM was 61.1 µM (inactive); in the test on SNB-75 it was > 69.3 µM (inactive); with BT-549, 8.26 µM (inactive); in the test on SN12C, 56.2 µM (inactive); with HOP-62, 39.3 µM (inactive); with A549, 54.5 µM (inactive). For the same compound, the GI50 is > 82.8 µM (inactive) in the test on Malme-3M and > 72.1 µM (inactive) in the test with SK-OV-3.

With `CCC(C)C1NC(=O)C(NC(=O)C(CC(C)C)N(C)C(=O)[C@@H]2CCCN2)C(C)OC(=O)[C@H](Cc2ccc(OC)cc2)N(C)C(=O)[C@@H]2CCCN2C(=O)[C@H](CC(C)C)NC(=O)C(C)C(=O)[C@H](C(C)C)OC(=O)CC1O` (stereo not given in full) (H-P[ξNMeL][ξT][X10]LP[NMeY](Me); ester 3-C), the GI50 with NCI-H522 is 0.000366 µM (active); with T47D, 0.000185 µM (active); in the test on UACC-62 it was < 0.0001 µM (active); with NCI/ADR-RES it was 0.0521 µM (active); with Hs-578T, < 0.01 µM (active); in the test on MCF7, < 0.0001 µM (active). Further, the GI50 was 0.00106 µM (active) in the test on PC-3; 0.00014 µM (active) in the test with SK-MEL-28; 0.000555 µM (active) in the test on SW-620; < 0.0001 µM (active) with HCT-116; 0.000317 µM (active) with SR; 0.00234 µM (active) in the test on ACHN. The GI50 in the test on CCRF-CEM is 0.000493 µM (active); in the test with SNB-75 it was 0.000682 µM (active); in the test on BT-549, 0.00156 µM (active); in the test on SN12C, 0.000411 µM (active); in the test on HOP-62, 0.00126 µM (active); in the test with A549, 0.000533 µM (active). For the same compound, the GI50 is 0.000317 µM (active) with Malme-3M and 0.000386 µM (active) with SK-OV-3.

As for `Cc1cc(=O)oc2c(C)c3oc(CBr)c(Br)c3cc12`, the GI50 was 14.7 µM (inactive) in the test with NCI-H522; 24.2 µM (inactive) with T47D; 17.5 µM (inactive) with UACC-62; 33.7 µM (inactive) with NCI/ADR-RES; 44.1 µM (inactive) with Hs-578T; 33.1 µM (inactive) in the test on MCF7. The GI50 in the test with PC-3 is 40.4 µM (inactive); with SK-MEL-28 it was 44.4 µM (inactive); in the test with SW-620, 16.9 µM (inactive); in the test on HCT-116, 26.9 µM (inactive); in the test with SR, 27.7 µM (inactive); with ACHN, 35.6 µM (inactive). The GI50 is 10.4 µM (inactive) in the test with CCRF-CEM; 22.5 µM (inactive) in the test with SNB-75; 29.3 µM (inactive) with BT-549; 20.1 µM (inactive) in the test on SN12C; 27 µM (inactive) in the test on HOP-62; 17.4 µM (inactive) in the test with A549. Moreover, the figures for the GI50 in the test with Malme-3M and in the test on SK-OV-3 were > 10 µM (inactive) and 43.3 µM (inactive), respectively.

Turning to `COc1cccc(C(=O)N[C@@H]2[C@H](O)[C@@H](CO)O[C@H]2n2cnc3c(N)ncnc32)c1`, the GI50 in the test on NCI-H522, with T47D, in the test on UACC-62, with NCI/ADR-RES, with Hs-578T and in the test with MCF7 was > 100 µM (inactive) throughout. The GI50 in the test on PC-3, in the test with SK-MEL-28, in the test with SW-620, in the test on HCT-116, in the test with SR and in the test on ACHN was > 100 µM (inactive) throughout. Further, the GI50 in the test with CCRF-CEM, in the test on SNB-75, in the test on BT-549, with SN12C, with HOP-62 and in the test on A549 was > 100 µM (inactive) each time. Besides, the GI50 in the test with Malme-3M and with SK-OV-3 was > 100 µM (inactive) in each case.

Turning to `Cc1c2cccc-2ccc2c1[nH]c1ccc(Br)cc12`, the GI50 with NCI-H522 was 2.48 µM (inactive); in the test with T47D, 1.69 µM (inactive); in the test with UACC-62 it was 13 µM (inactive); with NCI/ADR-RES it was 9.59 µM (inactive); with Hs-578T, 5.86 µM (inactive); in the test with MCF7 it was 4.06 µM (inactive). Moreover, the GI50 in the test on PC-3 is 4.18 µM (inactive); in the test on SK-MEL-28, 7.03 µM (inactive); in the test on SW-620, 4.75 µM (inactive); in the test with HCT-116, 4.85 µM (inactive); in the test with SR, 3.04 µM (inactive); with ACHN, 12.1 µM (inactive). The GI50 was 3.12 µM (inactive) in the test with CCRF-CEM; 2.21 µM (inactive) in the test with SNB-75; 7.03 µM (inactive) in the test on BT-549; 12.9 µM (inactive) with SN12C; 6.43 µM (inactive) with HOP-62; 4.2 µM (inactive) with A549. Further, the figures for the GI50 in the test on Malme-3M and in the test with SK-OV-3 were 9.86 µM (inactive) and 14.7 µM (inactive), respectively.

For the compound `CCSSCS(C)(=O)=O`, the GI50 in the test on NCI-H522 was 18.9 µM (inactive); in the test on T47D, 35.2 µM (inactive); in the test on UACC-62 it was 60.5 µM (inactive); in the test on NCI/ADR-RES it was 31.8 µM (inactive); in the test on Hs-578T, 43.5 µM (inactive); in the test with MCF7, 22.5 µM (inactive). For the same compound, the GI50 with PC-3 is 40 µM (inactive); in the test on SK-MEL-28, 58.5 µM (inactive); in the test on SW-620, 5.05 µM (inactive); in the test with HCT-116 it was 23.6 µM (inactive); in the test on SR it was 12.9 µM (inactive); with ACHN, 30.5 µM (inactive). Moreover, the GI50 with CCRF-CEM was 3.9 µM (inactive); in the test on SNB-75 it was 23.3 µM (inactive); with BT-549, 32.1 µM (inactive); in the test with SN12C, 24.8 µM (inactive); in the test with HOP-62 it was 39.3 µM (inactive); in the test on A549 it was 36.7 µM (inactive). Further, the results for the GI50 in the test with Malme-3M and with SK-OV-3 were 77.3 µM (inactive) and 56.6 µM (inactive), respectively.
